Test results: the supplement of paper PMC10307832

Key:
Test in all cases: relative viability (nuclei count vs DMSO), 5 days (fraction); higher = more cells survive
201T = tested on: 201T
Outline: (§1)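 Medians of duplicate plates are given as relative viability. That measure is the nuclei count in treated wells divided by the count in vehicle wells. Counts were taken on 4× images of lung cancer cell lines in 1536-well plates, 5 days after pin-tool dosing the day after seeding with one drug alone or a fixed anchor-drug dose plus five library-drug doses (not always all listed) in √10 steps.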

A-427 = tested on: A-427
Outline: as §1

ABC-1 = tested on: ABC-1
Outline: as §1

BEN = tested on: BEN
Outline: as §1

CAL-12T = tested on: CAL-12T
Outline: as §1

H3255 = tested on: H3255
Outline: as §1

LC-2-ad = tested on: LC-2-ad
Outline: as §1

LCLC-97TM1 = tested on: LCLC-97TM1
Outline: as §1

NCI-H1650 = tested on: NCI-H1650
Outline: as §1

NCI-H1651 = tested on: NCI-H1651
Outline: as §1

NCI-H1915 = tested on: NCI-H1915
Outline: as §1

NCI-H1944 = tested on: NCI-H1944
Outline: as §1

NCI-H2023 = tested on: NCI-H2023
Outline: as §1

NCI-H2087 = tested on: NCI-H2087
Outline: as §1

NCI-H441 = tested on: NCI-H441
Outline: as §1

NCI-H460 = tested on: NCI-H460
Outline: as §1

NCI-H520 = tested on: NCI-H520
Outline: as §1

NCI-H596 = tested on: NCI-H596
Outline: as §1

NCI-H650 = tested on: NCI-H650
Outline: as §1

NCI-H661 = tested on: NCI-H661
Outline: as §1

NCI-H727 = tested on: NCI-H727
Outline: as §1

PC-3 [JPC-3] = tested on: PC-3 [JPC-3]
Outline: as §1

CCN(CC)CCCCNc1ncc2cc(-c3cc(OC)cc(OC)c3)c(NC(=O)NC(C)(C)C)nc2n1 + N=C(N)NC(=N)NCCc1ccccc1 [Phenformin] (partner 250 µM)
relative viability (201T; first compound 0.01 µM): 0.477 | relative viability (201T; first compound 0.03162 µM): 0.479 | relative viability (201T; first compound 0.1 µM): 0.51 | relative viability (201T; first compound 0.3162 µM): 0.47 | relative viability (201T; first compound 1 µM): 0.376 | relative viability (A-427; first compound 0.01 µM): 0.294 | relative viability (A-427; first compound 0.03162 µM): 0.273 | relative viability (A-427; first compound 0.1 µM): 0.289 | relative viability (A-427; first compound 0.3162 µM): 0.204 | relative viability (A-427; first compound 1 µM): 0.173 | relative viability (ABC-1; first compound 0.01 µM): 0.24 | relative viability (ABC-1; first compound 0.03162 µM): 0.286 | relative viability (ABC-1; first compound 0.1 µM): 0.256 | relative viability (ABC-1; first compound 0.3162 µM): 0.208 | relative viability (ABC-1; first compound 1 µM): 0.254 | relative viability (BEN; first compound 0.01 µM): 0.261 | relative viability (BEN; first compound 0.03162 µM): 0.236 | relative viability (BEN; first compound 0.1 µM): 0.278 | relative viability (BEN; first compound 0.3162 µM): 0.464 | relative viability (BEN; first compound 1 µM): 0.244 | relative viability (CAL-12T; first compound 0.01 µM): 0.595 | relative viability (CAL-12T; first compound 0.03162 µM): 0.582 | relative viability (CAL-12T; first compound 0.1 µM): 0.673 | relative viability (CAL-12T; first compound 0.3162 µM): 0.726 | relative viability (CAL-12T; first compound 1 µM): 0.573 | relative viability (H3255; first compound 0.01 µM): 0.347 | relative viability (H3255; first compound 0.03162 µM): 0.336 | relative viability (H3255; first compound 0.1 µM): 0.27 | relative viability (H3255; first compound 0.3162 µM): 0.408 | relative viability (H3255; first compound 1 µM): 0.356 | relative viability (LC-2-ad; first compound 0.01 µM): 0.625 | relative viability (LC-2-ad; first compound 0.03162 µM): 0.55 | relative viability (LC-2-ad; first compound 0.1 µM): 0.586 | relative viability (LC-2-ad; first compound 0.3162 µM): 0.629 | relative viability (LC-2-ad; first compound 1 µM): 0.483 | relative viability (LCLC-97TM1; first compound 0.01 µM): 0.465 | relative viability (LCLC-97TM1; first compound 0.03162 µM): 0.42 | relative viability (LCLC-97TM1; first compound 0.1 µM): 0.514 | relative viability (LCLC-97TM1; first compound 0.3162 µM): 0.428 | relative viability (LCLC-97TM1; first compound 1 µM): 0.506 | relative viability (NCI-H1650; first compound 0.01 µM): 0.456 | relative viability (NCI-H1650; first compound 0.03162 µM): 0.416 | relative viability (NCI-H1650; first compound 0.1 µM): 0.503 | relative viability (NCI-H1650; first compound 0.3162 µM): 0.319 | relative viability (NCI-H1650; first compound 1 µM): 0.232 | relative viability (NCI-H1651; first compound 0.01 µM): 0.305 | relative viability (NCI-H1651; first compound 0.03162 µM): 0.383 | relative viability (NCI-H1651; first compound 0.1 µM): 0.347 | relative viability (NCI-H1651; first compound 0.3162 µM): 0.316 | relative viability (NCI-H1651; first compound 1 µM): 0.257 | relative viability (NCI-H1915; first compound 0.01 µM): 0.376 | relative viability (NCI-H1915; first compound 0.03162 µM): 0.377 | relative viability (NCI-H1915; first compound 0.1 µM): 0.365 | relative viability (NCI-H1915; first compound 0.3162 µM): 0.373 | relative viability (NCI-H1915; first compound 1 µM): 0.337 | relative viability (NCI-H1944; first compound 0.01 µM): 0.204 | relative viability (NCI-H1944; first compound 0.03162 µM): 0.195 | relative viability (NCI-H1944; first compound 0.1 µM): 0.194 | relative viability (NCI-H1944; first compound 0.3162 µM): 0.202 | relative viability (NCI-H1944; first compound 1 µM): 0.16 | relative viability (NCI-H2023; first compound 0.01 µM): 0.415 | relative viability (NCI-H2023; first compound 0.03162 µM): 0.43 | relative viability (NCI-H2023; first compound 0.1 µM): 0.5 | relative viability (NCI-H2023; first compound 0.3162 µM): 0.432 | relative viability (NCI-H2023; first compound 1 µM): 0.4 | relative viability (NCI-H2087; first compound 0.01 µM): 0.42 | relative viability (NCI-H2087; first compound 0.03162 µM): 0.537 | relative viability (NCI-H2087; first compound 0.1 µM): 0.536 | relative viability (NCI-H2087; first compound 0.3162 µM): 0.522 | relative viability (NCI-H2087; first compound 1 µM): 0.429 | relative viability (NCI-H441; first compound 0.01 µM): 0.826 | relative viability (NCI-H441; first compound 0.03162 µM): 0.87 | relative viability (NCI-H441; first compound 0.1 µM): 1.02 | relative viability (NCI-H441; first compound 0.3162 µM): 0.835 | relative viability (NCI-H441; first compound 1 µM): 0.933 | relative viability (NCI-H460; first compound 0.01 µM): 0.536 | relative viability (NCI-H460; first compound 0.03162 µM): 0.567 | relative viability (NCI-H460; first compound 0.1 µM): 0.53 | relative viability (NCI-H460; first compound 0.3162 µM): 0.68 | relative viability (NCI-H460; first compound 1 µM): 0.329 | relative viability (NCI-H520; first compound 0.01 µM): 0.453 | relative viability (NCI-H520; first compound 0.03162 µM): 0.519 | relative viability (NCI-H520; first compound 0.1 µM): 0.623 | relative viability (NCI-H520; first compound 0.3162 µM): 0.335 | relative viability (NCI-H520; first compound 1 µM): 0.191 | relative viability (NCI-H596; first compound 0.01 µM): 0.66 | relative viability (NCI-H596; first compound 0.03162 µM): 0.727 | relative viability (NCI-H596; first compound 0.1 µM): 0.899 | relative viability (NCI-H596; first compound 0.3162 µM): 0.832 | relative viability (NCI-H596; first compound 1 µM): 0.621 | relative viability (NCI-H650; first compound 0.01 µM): 0.417 | relative viability (NCI-H650; first compound 0.03162 µM): 0.442 | relative viability (NCI-H650; first compound 0.1 µM): 0.449 | relative viability (NCI-H650; first compound 0.3162 µM): 0.47 | relative viability (NCI-H650; first compound 1 µM): 0.451 | relative viability (NCI-H661; first compound 0.01 µM): 0.289 | relative viability (NCI-H661; first compound 0.03162 µM): 0.297 | relative viability (NCI-H661; first compound 0.1 µM): 0.27 | relative viability (NCI-H661; first compound 0.3162 µM): 0.291 | relative viability (NCI-H661; first compound 1 µM): 0.278 | relative viability (NCI-H727; first compound 0.01 µM): 0.509 | relative viability (NCI-H727; first compound 0.03162 µM): 0.49 | relative viability (NCI-H727; first compound 0.1 µM): 0.547 | relative viability (NCI-H727; first compound 0.3162 µM): 0.728 | relative viability (NCI-H727; first compound 1 µM): 0.632 | relative viability (PC-3 [JPC-3]; first compound 0.01 µM): 0.485 | relative viability (PC-3 [JPC-3]; first compound 0.03162 µM): 0.484 | relative viability (PC-3 [JPC-3]; first compound 0.1 µM): 0.487 | relative viability (PC-3 [JPC-3]; first compound 0.3162 µM): 0.498 | relative viability (PC-3 [JPC-3]; first compound 1 µM): 0.449
